Assay results as given in US20240197687A1, “METHODS OF TREATING NEUROINFLAMMATION AND INHIBITING MONOAMINE OXIDASE-A AND RESTORING/UPREGULATING/INCREASING IL-13 AND AND PGC-1 BY ADMINISTERING ORAL DOSAGE FORM CONTAINING MICRONIZED AND NONMICRONIZED PARTICULATE METAXALONE, ALGINIC ACID AND PROPYLENE GLYCOL ALGINATE” (Primus Pharmaceuticals, Inc., priority 2022, published 2024).

How the values were obtained:
[1] = target: T1, monoamine oxidase A (MAO-A) (Homo sapiens, UniProt P21397); details: cited from earlier work
T1 sequence (P21397 1-527): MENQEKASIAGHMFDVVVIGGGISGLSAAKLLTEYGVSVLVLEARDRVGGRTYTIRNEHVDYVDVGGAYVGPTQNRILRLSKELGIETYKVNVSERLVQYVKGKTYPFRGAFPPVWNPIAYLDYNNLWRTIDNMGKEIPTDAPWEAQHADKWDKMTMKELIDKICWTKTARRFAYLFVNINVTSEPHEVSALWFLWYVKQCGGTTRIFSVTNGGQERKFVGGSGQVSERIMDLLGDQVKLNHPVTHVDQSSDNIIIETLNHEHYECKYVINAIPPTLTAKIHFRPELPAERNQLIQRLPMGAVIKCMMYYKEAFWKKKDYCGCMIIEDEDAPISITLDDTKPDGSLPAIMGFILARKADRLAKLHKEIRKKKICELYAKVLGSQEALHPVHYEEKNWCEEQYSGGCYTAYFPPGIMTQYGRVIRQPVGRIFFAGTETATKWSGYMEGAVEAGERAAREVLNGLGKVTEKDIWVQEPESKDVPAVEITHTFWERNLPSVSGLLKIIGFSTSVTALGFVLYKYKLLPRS

HMC3 microglial cells [2] = tested on: HMC3 microglial cells
[3] = tested on: Mouse Macrophages RAW264.7 cells; details: LPS-stimulated mouse macrophages; cited from earlier work
HMC3 microglial cells [4] = assay: RT-qPCR mRNA expression in IL-1β-stimulated HMC3 microglial cells; format: cell-based, Human; details: metaxalone 10, 20, 40 μg/mL, p<0.0001 vs. IL-1β
Method: Human microglial HMC3 cell line (CRL-3304) was obtained from ATCC (American Type Culture Collection; Manassas, VA, USA). Cells were cultured in Eagle's minimum essential medium (EMEM) with a supplement of 10% fetal bovine serum (FBS) and 1% antibiotic mixture, and were incubated at 37° C. with 5% of CO2. Both medium and supplements were provided by ATCC (Manassas, VA, USA). Cells were seeded in 6-well plates at a density of 4×10^5 cells/well. A stock solution of metaxalone (Sigma Aldrich, Milan, Italy) was prepared by dissolving metaxalone in DMSO. Sixteen hours after plating (time 0), metaxalone was added at the doses of 10, 20, and 40 μg/mL 1 h following IL-1β stimulation (5 ng/mL; Sigma Aldrich, Milan, Italy). After 6 h cells were harvested for mRNA evaluation. In a separate set of plates, cells were incubated for 24 h before MTT assay to evaluate cell viability. The dose-response curve for IL-1β stimulation can be found at Supplemental FIG. S1. Total RNA was extracted from human microglial HMC3 for RT-qPCR using Trizol LS reagent (Invitrogen, Carlsbad, CA, USA). Two μg of total RNA was reverse transcribed in a final volume of 20 μL using a Superscript VILO kit (Invitrogen, Carlsbad, CA, USA). […] The final primer concentration used to carry out the analysis was 10 μM. Samples from each group were run in duplicate and β-actin was used as an endogenous control. Results were calculated using the 2-ΔΔCT method and expressed as n-fold increase in gene expression using control group as calibrator. […]. et al. Activation of A2A Receptor by PDRN Reduces Neuronal Damage and Stimulates WNT/β-CATENIN Driven Neurogenesis in Spinal Cord Injury. Front. Pharmacol. 2018, 9, 506. Pizzino, G. et al. Effects of the antagomiRs 15b and 200b on the altered healing pattern of diabetic mice. Br. J. Pharmacol. 2018, 175, 644-655.

HMC3 microglial cells [5] = assay: ELISA of cytokines in cell culture supernatants of IL-1β-stimulated HMC3 cells; format: cell-based, Human; details: metaxalone 10, 20, 40 μg/mL, dose-dependent, p<0.0001 vs. IL-1β
Method: Human microglial HMC3 cell line (CRL-3304) was obtained from ATCC (American Type Culture Collection; Manassas, VA, USA). Cells were cultured in Eagle's minimum essential medium (EMEM) with a supplement of 10% fetal bovine serum (FBS) and 1% antibiotic mixture, and were incubated at 37° C. with 5% of CO2. Both medium and supplements were provided by ATCC (Manassas, VA, USA). Cells were seeded in 6-well plates at a density of 4×10^5 cells/well. A stock solution of metaxalone (Sigma Aldrich, Milan, Italy) was prepared by dissolving metaxalone in DMSO. Sixteen hours after plating (time 0), metaxalone was added at the doses of 10, 20, and 40 μg/mL 1 h following IL-1β stimulation (5 ng/mL; Sigma Aldrich, Milan, Italy). After 6 h cells were harvested for mRNA evaluation. In a separate set of plates, cells were incubated for 24 h before MTT assay to evaluate cell viability. The dose-response curve for IL-1β stimulation can be found at Supplemental FIG. S1. Measurements of Cytokines by Enzyme-Linked Immunosorbent Assay (ELISA). Tumor necrosis factor-alpha (TNF-α), interleukin-6 (IL-6) and interleukin-13 (IL-13) were measured in the cell culture supernatants. The products under investigation were measured using enzyme-linked immunosorbent assay (ELISA) kits (Abcam, Cambridge, UK), in agreement with the instructions reported by the manufacturer. All the samples were evaluated in duplicate and the obtained results were interpolated with the pertinent standard curves. To evaluate the sample, the means of the duplicated sample were used and expressed in pg/mL.

MAO-A = target: T2, MAO-A (Homo sapiens, UniProt P21397); assay: MAO-A activity assay (MAO-GLO bioluminescent) in IL-1β-stimulated microglial cells; format: cell-based; details: chemiluminescence assay, metaxalone 10, 20, 40 μg/mL, dose-dependent, p<0.0001 vs. IL-1β
T2 construct: MAO-A was constitutively expressed in microglia cells; endogenous in cells; host or cells: HMC3 human microglial cells
T2 sequence (P21397 1-527): T1 sequence (P21397 1-527)
Method: MAO-A Activity Assay. MAO-A activity was evaluated by a two-step bioluminescent assay methodology, as previously described (See, Lin, Y. C. et al., MAO-A novel decision maker of apoptosis and autophagy in hormone refractory neuroendocrine prostate cancer cells. Sci. Rep. 2017, 7, 46338) using a MAO-GLO™ assay kit from Promega (Madison, WI, USA). The produced amount of signal (light intensity) was measured using a microplate luminometer (Multilabel Counter Victor3™, PerkinElmer Life Sciences). Human recombinant MAO-A enzyme was used as a positive control. The results are given as relative light units after the background was subtracted.

MAO-A activity (MAO-A): suppressed
Structure (SMILES): Cc1cc(C)cc(OCC2CNC(=O)O2)c1 (stereo not drawn) [metaxalone, 5-[(3,5-dimethylphenoxy)methyl]-2-oxazolidinone]
MAO-A inhibition [1]: reported to inhibit | cell viability (MTT) (HMC3 microglial cells [2]): did not produce any toxic effect | inflammatory cytokines [3]: robust reduction | IL-6 mRNA expression (HMC3 microglial cells [4]; IL-1β (5 ng/mL)-stimulated HMC3 cells (IL-6 increased by IL-1β), 6 h, dose-dependent): significantly reverted | IL-13 mRNA expression (HMC3 microglial cells [4]; IL-1β (5 ng/mL)-stimulated HMC3 cells (IL-13 decreased by IL-1β), 6 h, dose-dependent): significantly reverted | TNF-α mRNA expression (HMC3 microglial cells [4]; IL-1β (5 ng/mL)-stimulated HMC3 cells (TNF-α increased by IL-1β), 6 h, dose-dependent): significantly reverted | NF-κB mRNA expression (HMC3 microglial cells [4]; IL-1β-stimulated HMC3 cells, dose-dependent): significantly reduced | NRF-2 mRNA expression (HMC3 microglial cells [4]; IL-1β-stimulated HMC3 cells): significantly upregulated | PGC-1α mRNA expression (HMC3 microglial cells [4]; IL-1β-stimulated HMC3 cells): marked increase | PPARγ mRNA expression (HMC3 microglial cells [4]; IL-1β-stimulated HMC3 cells): marked increase | MAO-A mRNA expression (HMC3 microglial cells [4]; IL-1β-stimulated microglia cells, dose-dependent): markedly reduced | IL-6 protein levels (HMC3 microglial cells [5]; supernatant of IL-1β-stimulated HMC3 cells (IL-6 increased by IL-1β)): significantly reverted | IL-13 protein levels (HMC3 microglial cells [5]; supernatant of IL-1β-stimulated HMC3 cells (IL-13 decreased by IL-1β)): significantly reverted | TNF-α protein levels (HMC3 microglial cells [5]; supernatant of IL-1β-stimulated HMC3 cells (TNF-α increased by IL-1β)): significantly reverted
